From US8298522B1, “Methods of modulating MUC1 expression to inhibit inflammation” (priority 2005, dated 2012)
*1 amine or outer side, *2 acyl side, *3 side chain or, on linkers, in order; H or OH if unused. Where a SMILES comes first, the peptide text is derived from it. Bridges are numbered along the chain shown (N, C = ends). Roman numbers before positions name the chains, in order. [ ]: non-standard residue; d: D form. Actinocin(9to1) = Cc1c2oc3c(C)ccc(C(=O)[*:1])c3nc-2c(C(=O)[*:2])c(N)c1=O; NMeV = CN[C@H](C(=O)O)C(C)C; d = 2'-deoxy (DNA); Sar = CNCC(=O)O; r = 2'-OH (RNA)

Key:
[1] = tested on: MUC1 protein in A549 cells; settings: A549 cells, 5.0 μg/ml AcD or 10 μg/ml Chx, no NE
Protocol: Confluent A549 cells were incubated in the presence or absence of 5.0 μg/ml of actinomycin (AcD) or 10 μg/ml of cycloheximide (Chx) for 1 hr and either non-treated or treated for 24 hr with 100 nM of NE. MUC1 protein levels in cell lysates (A) and spent media (B) were measured by ELISA. Each bar represents the mean±SEM (n=3). […] (C) Aliquots of spent media obtained from confluent A549 cells were non-treated (0 hr) or treated for 24 hr with 100 nM NE or vehicle control and MUC1 levels in the spent media determined by ELISA. Each bar represents the mean±SEM (n=3).
A549 cells were seeded at 5.0×10^4 cells/well in 24-well plates in Dulbecco's Modified Eagle Medium (DMEM) containing 10% fetal bovine serum (FBS), 100 U/ml penicillin, and 100 μg/ml streptomycin (all from Invitrogen, Carlsbad, Calif.) and incubated at 37° C. in a humidified CO2 incubator. Confluent monolayers were washed with serum-free DMEM and treated with 100 nM (2.6 U/ml) NE or vehicle control (PBS) for 24 hr. In some experiments, the cells were pretreated for 1 hr with 5.0 μg/ml of actinomycin D or 10 μg/ml of cycloheximide prior to NE treatment. Following treatment, cell-conditioned media were collected, and the cells were washed with PBS and lysed with 500 μl/well of PBS containing 1.0% Triton X-100, 1.0% sodium deoxycholate, 1.0% protease inhibitor cocktail, and 2.0 mM phenylmethylsulfonyl fluoride (PMSF). Lysates and conditioned media were incubated for 20 min at 80° C. to inactivate residual NE, insoluble material removed by centrifugation at 14,000×g for 10 min at 4° C., and protein concentrations measured by the procedure of Bradford using bovine serum albumin as standard.
ELISA. A549 cell lysates or cell-conditioned culture media were centrifuged at 10,000×g for 10 min at 4° C., added in triplicate to 96-well ELISA plates (MaxiSorb™, Nalge Nunc, Rochester, N.Y.), and incubated overnight at 4° C. Wells were blocked for 1 hr at room temperature (about 22° C.) with PBS, pH 7.0, containing 10 mg/ml BSA and 50 mg/ml sucrose and washed with PBS containing 0.05% Tween 20 (PBS-T). The samples were reacted for 2 hr at room temperature with 200 μg/ml of primary MUC1 antibody (GP1.4), washed with PBS-T, reacted for 2 hr at room temperature with 200 μg/ml of secondary antibody (peroxidase-conjugated goat antimouse IgG) (KPL, Gaithersburg, Md.), and washed with PBS-T. Bound antibodies were detected with tetramethylbenzidine substrate (SureBlue™, KPL), the substrate reaction stopped with 1 N HCl, and absorbencies at 450 nm measured using a microplate spectrophotometer (Dexall, Gaithersburg, Md.).

[2] = tested on: MUC1 transcription (MEK/ERK signaling pathway); assay: TNF-α induced MUC1 expression in A549 lung epithelial cells; format: cell-based, human
Text: TNF-α induces MUC1 expression through a MAP kinase pathway in human lung epithelial cells. TNF-α stimulates MUC1 transcription and protein expression in lung epithelial cells. Activation of MAP kinases and NF-κB was verified using Western blot analysis. […] TNF-α activate all three MAP kinases (ERK, p38, and JNK) as well as NF-κB. […] TNF-α stimulates MUC1 production in A549 cells through transcriptional activation via the MEK/ERK signaling pathway.

TLR5 [3] = biological target: T1, TLR5 (Homo sapiens, UniProt O60602); assay: cell-based or functional assay
T1 sequence (O60602 21-858): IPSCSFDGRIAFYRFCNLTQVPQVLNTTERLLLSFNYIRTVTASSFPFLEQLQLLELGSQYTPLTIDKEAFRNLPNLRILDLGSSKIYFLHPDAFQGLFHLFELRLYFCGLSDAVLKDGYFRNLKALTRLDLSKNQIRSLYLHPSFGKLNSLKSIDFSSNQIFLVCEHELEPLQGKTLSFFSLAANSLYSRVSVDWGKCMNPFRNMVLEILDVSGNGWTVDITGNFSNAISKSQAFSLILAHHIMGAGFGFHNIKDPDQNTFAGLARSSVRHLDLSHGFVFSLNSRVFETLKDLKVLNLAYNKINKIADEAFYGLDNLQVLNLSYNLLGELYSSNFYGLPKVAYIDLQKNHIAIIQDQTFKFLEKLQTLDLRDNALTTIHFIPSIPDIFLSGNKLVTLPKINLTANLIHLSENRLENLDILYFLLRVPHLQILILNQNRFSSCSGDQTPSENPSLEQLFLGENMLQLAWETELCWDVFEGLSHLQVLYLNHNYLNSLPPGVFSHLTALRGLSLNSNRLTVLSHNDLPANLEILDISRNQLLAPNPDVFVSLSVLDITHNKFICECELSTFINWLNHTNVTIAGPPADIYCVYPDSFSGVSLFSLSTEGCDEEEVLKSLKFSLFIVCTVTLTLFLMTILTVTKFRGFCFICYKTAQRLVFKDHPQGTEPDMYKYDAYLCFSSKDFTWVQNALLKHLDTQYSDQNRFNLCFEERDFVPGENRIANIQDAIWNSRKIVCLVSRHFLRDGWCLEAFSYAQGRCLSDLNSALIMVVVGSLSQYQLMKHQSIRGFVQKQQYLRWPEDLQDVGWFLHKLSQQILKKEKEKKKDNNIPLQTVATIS

[4] = tested on: IL-8 levels in primary NHBE cells; assay: Flagellin-induced IL-8 levels in MUC1 siRNA-treated primary NHBE cells; format: cell-based, human; settings: 10 ng/ml flagellin 6 h, basolateral medium
Protocol: (§1) Primary NHBE cells were nucleofected with 1.5 μg of a MUC1 siRNA or a non-targeting control RNA. At 48 h post-nucleofection, total MUC1 protein was determined by immunoblotting as described (20) (A) and cell surface MUC1 was determined by FACS analysis using anti-MUC1 (GP1.4, mouse IgG1, κ, Biomeda) as primary antibody and R-Phycoerythrin-conjugated goat anti-mouse IgG (Santa Cruz) as secondary antibody. Mouse IgG1 (κ isotype, eBioscience) was used as primary antibody to determine threshold fluorescence signal. (B). (C) Cells were stimulated with 10 ng/ml of flagellin for 6 h and IL-8 levels in basolateral medium were measured.
(§2) Macrophages were harvested from BALF or the peritoneal space, and erythrocytes lysed with 10 mM Tris-HCl, pH 7.2 containing 150 mM NH4Cl. Peritoneal macrophages (PM) were harvested after treating mice i.p. with 3% thioglycollate for 3 days. The recovered cells consisted of >95% macrophages as determined by immunofluorescence using the F4/80 macrophage marker (eBioscience). […]
(§3) Mouse KC and TNF-α and human IL-8 were quantified by ELISA using commercially available antibodies (eBioscience; R&D Systems). All samples were analyzed in triplicate and standard curves were performed on each plate.

MUC1 = MUC1 siRNA knockdown of MUC1 expression in primary NHBE cells (immunoblot, FACS); format: cell-based, human; settings: 1.5 μg siRNA, vs control RNA
Protocol: as §1
as §2, with “(eBioscience). Cells were seeded in 24-well tissue culture plates at 1.0×10^5 cells/well in DMEM containing 10% FBS, […], and allowed to adhere for 24 h before flagellin or LPS (PA10, Sigma) treatment.” for “(eBioscience).”

[5] = tested on: ELAM-1 promoter activity in A549 lung carcinoma cells; assay: ELAM-1 promoter-luciferase assay in A549 cells after MUC1 siRNA transfection; format: cell-based, human; settings: 8.0 nM siRNA 24 h, 10 ng/ml flagellin 6 h
Protocol: To assess the effects of endogenous MUC1 expression on NF-κB activation, ELAM-1 promoter activity in A549 lung carcinoma cells following transfection with MUC1 with small interfering RNA (siRNA) duplexes was measured. Inhibition of MUC1 expression was confirmed by FACS analysis following treatment with the MUC1 siRNA but not a control RNA (data not shown).
Referring now to FIG. 3, twenty four hours after transfection with the control RNA or MUC1 siRNA, A549 cells were treated with 10 ng/ml of flagellin or an equivalent amount of the fliC control for 6 hours. Cell lysates were prepared and luciferase activity measured as indicated in the examples section. […]
HEK293T and A549 cells were seeded in 24-well plates at 2×10^5 and 5×10^4 cells/well respectively, incubated overnight, and transfected with the 0.4 μg/well of the NF-κB responsive pELAM-1 promoter-luciferase plasmid and 10 ng/well of the phRL-TK plasmid (Promega) as an internal control using 2 μl/well of Lipofectamine™2000 (Invitrogen) according to the manufacturer's instructions. The cells were incubated for 24 h at 37° C. in 5% CO2, treated with 10 ng/ml PAK flagellin or an equivalent volume of the fliC negative control for 6 h, and relative luciferase activity determined. […] Data are expressed as mean relative luciferase activity±SEM of triplicate or quadruplicate determinations.

TLR5 [6] = biological target: T1, TLR5; assay: Flagellin-driven IL-8 release in HEK293T cells with or without transfected TLR5; format: cell-based; set-up: V5-His (vector pEF6/V5-His); expressed in transfected cells; host or cells: HEK293T
Protocol: TLR5 mediates flagellin-stimulated innate immune responses. Because TLR5 and MUC1/Muc1 are flagellin receptors and both are expressed by airway macrophages and epithelial cells the relationship between MUC1 and TLR5 in response to flagellin in HEK293T cells stably transfected with a MUC1 expressing plasmid and flagellin-driven IL-8 release was determined following transient transfection with a TLR5 expressing plasmid. HEK293T cells express TLR5 but not MUC1. […] Flagellin-induced increase in IL-8 release was completely abolished in cells co-transfected with MUC1 and TLR5. […] HEK293T cells stably transfected with the pcDNA3.1 empty vector (A) or plasmids encoding the full-length MUC1 or MUC1-ACT (B) were transiently transfected with a TLR5 expression plasmid or empty vector. At 24 h post-transfection, the cells were treated for 6 h with 10 ng/ml of flagellin or PBS, and IL-8 levels in medium were measured. […]
as §3

[7] = tested on: ELAM-1 promoter (NF-κB activation, TLR5 signaling) in HEK293T cells; assay: ELAM-1 promoter-luciferase reporter assay in HEK293T cells; format: cell-based, human; settings: 10 ng/ml PAK flagellin, 6 h
Text: The relationship between TLR5 and MUC1 signaling in response to flagellin was investigated utilizing TLR5-expressing cells in the absence or presence of MUC1 expression. Initially, we screened a number of different airway and non-airway cell lines by Western blotting and/or real-time PCR with the goal of identifying a TLR5+/MUC1− host cells for transfection of the pMUC1 expression plasmid. Referring now to FIG. 1A, (A) HEK293T cells were transfected with pcDNA3.1 empty vector or the pMUC1 expression plasmid. After trypsinization, cells were reacted with normal mouse IgG or mouse anti-MUC1 antibody followed by PE-conjugated goat anti-mouse IgG antibody and examined by FACS analysis. […] Cell lysates were prepared and relative luciferase activity measured as indicated in Materials and Methods. […]
HEK293T and A549 cells were seeded in 24-well plates at 2×10^5 and 5×10^4 cells/well respectively, incubated overnight, and transfected with the 0.4 μg/well of the NF-κB responsive pELAM-1 promoter-luciferase plasmid and 10 ng/well of the phRL-TK plasmid (Promega) as an internal control using 2 μl/well of Lipofectamine™2000 (Invitrogen) according to the manufacturer's instructions. The cells were incubated for 24 h at 37° C. in 5% CO2, treated with 10 ng/ml PAK flagellin or an equivalent volume of the fliC negative control for 6 h, and relative luciferase activity determined. […]

## Cc1c2oc3c(C)ccc(C(=O)N[C@@H]4C(=O)N[C@H](C(C)C)C(=O)N5CCC[C@H]5C(=O)N(C)CC(=O)N(C)[C@@H](C(C)C)C(=O)O[C@@H]4C)c3nc-2c(C(=O)N[C@@H]2C(=O)N[C@H](C(C)C)C(=O)N3CCC[C@H]3C(=O)N(C)CC(=O)N(C)[C@@H](C(C)C)C(=O)O[C@@H]2C)c(N)c1=O [AcD, actinomycin D] (I: T[dV]P[Sar][NMeV] / II: T[dV]P[Sar][NMeV]; ester I:1-I:C, II:1-II:C; linker I:N-II:N via Actinocin(9to1))
[1]
  effect of treatment alone on cellular MUC1 levels: did not significantly affect

## C[C@@H]1C[C@@H]([C@H](O)CC2CC(=O)NC(=O)C2)C(=O)[C@@H](C)C1 [Chx, cycloheximide]
[1]
  effect of treatment alone on cellular MUC1 levels: did not significantly affect

## N#CC(=C(/N)Sc1ccccc1N)/C(C#N)=C(\N)Sc1ccccc1N [U0126]
[2]; A549 cells, pretreatment with U0126
  effect on TNF-α induced MUC1 transcription: completely blocked

## P. aeruginosa strain K (PAK) flagellin (from UniProt P21184 2-394) (ligand)
TLR5 [3]
  IL-8 release (HEK293T cells transfected with empty vector, endogenous TLR5; 10 ng/ml flagellin for 6 h vs PBS): 55 % increase
  IL-8 release (HEK293T cells transiently transfected with TLR5 expression plasmid; 10 ng/ml flagellin for 6 h vs PBS): 164 % increase
  relative luciferase activity (ELAM-1 promoter-luciferase reporter, HEK293T cells, 10 ng/ml flagellin vs fliC negative control): 10 fold

## MUC1 siRNA: 21-bp siRNA with a sequence derived from the MUC1 gene (Dharmacon); sense SEQ ID NO: 2, antisense SEQ ID NO: 3 (sense GUUCAGUGCCCAGCUCUACTT; antisense GUAGAGCUGGGCACUGAACTT; sugars from the 5' end r19 d2, backbone not given here)
[4]
  greater flagellin-induced IL-8 levels compared with control RNA: 50%
MUC1; 48 h, FACS
  decrease in the number of cells with surface MUC1 expression: 67%
MUC1; 48 h post-nucleofection, immunoblot
  knockdown of total cellular MUC1 expression: approximately 95%
[5]
  effect on flagellin-induced ELAM-1 promoter activity compared with control RNA: significantly increased

## TNF-α
[2]; human lung epithelial (A549) cells
  effect on MUC1 protein and mRNA levels: increased both MUC1 protein and mRNA levels

B1: PAK flagellin: P. aeruginosa strain K flagellin purified by differential centrifugation, single 50 kDa protein band (protein)
chain: ALTVNTNIASLNTQRNLNNSSASLNTSLQRLSTGSRINSAKDDAAGLQIANRLTSQVNGLNVATKNANDGISLAQTAEGALQQSTNILQRMRDLSLQSANGSNSDSERTALNGEVKQLQKELDRISNTTTFGGRKLLDGSFGVASFQVGSAANEIISVGIDEMSAESLNGTYFKADGGGAVTAATASGTVDIAIGITGGSAVNVKVDMKGNETAEQAAAKIAAAVNDANVGIGAFSDGDTISYVSKAGKDGSGAITSAVSGVVIADTGSTGVGTAAGVTPSATAFAKTNDTVAKIDISTAKGAQSAVLVIDEAIKQIDAQRADLGAVQNRFDNTINNLKNIGENVSAARGRIEDTDFAAETANLTKNQVLQQAGTAILAQANQLPQSVLSLLR
TLR5 [6]; HEK293T cells transfected with TLR5, 10 ng/ml flagellin 6 h
  increase in IL-8 release compared with PBS treatment: 164%
TLR5 [6]; HEK293T cells transfected with empty vector, 10 ng/ml flagellin 6 h
  increase in IL-8 release compared with PBS treatment: 55%
[7]
  increase in relative luciferase activity (ELAM-1 promoter) compared with fliC negative control: greater than 10 fold
